Data reported in US20080125432A1 (Devgen NV, priority 2004, published 2008).

Molecular target: T1, Ito (Kv4.3) (Homo sapiens, UniProt Q9UK17)
T1 construct: endogenous in cells; host or cells: freshly isolated human atrial myocytes
T1 sequence (Q9UK17 1-655): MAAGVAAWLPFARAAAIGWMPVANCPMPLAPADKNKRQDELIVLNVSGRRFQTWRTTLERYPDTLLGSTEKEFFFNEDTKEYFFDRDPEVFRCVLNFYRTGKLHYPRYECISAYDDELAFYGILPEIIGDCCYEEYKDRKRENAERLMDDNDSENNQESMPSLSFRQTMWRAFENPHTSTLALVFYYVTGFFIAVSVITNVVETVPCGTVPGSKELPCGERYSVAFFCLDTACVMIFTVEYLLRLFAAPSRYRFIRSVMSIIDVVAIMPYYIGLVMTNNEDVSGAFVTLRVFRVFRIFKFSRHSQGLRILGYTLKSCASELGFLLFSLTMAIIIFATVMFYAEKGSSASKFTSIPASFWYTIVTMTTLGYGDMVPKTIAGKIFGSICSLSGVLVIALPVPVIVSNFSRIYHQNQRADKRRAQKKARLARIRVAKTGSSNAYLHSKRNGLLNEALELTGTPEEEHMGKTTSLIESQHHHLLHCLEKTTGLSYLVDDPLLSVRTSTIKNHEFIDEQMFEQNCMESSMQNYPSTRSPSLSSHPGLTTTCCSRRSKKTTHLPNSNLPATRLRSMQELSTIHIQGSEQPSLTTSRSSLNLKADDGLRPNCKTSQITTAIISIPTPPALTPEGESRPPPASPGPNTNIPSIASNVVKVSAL
T1 sequence (Q9NS61 1-270 partner): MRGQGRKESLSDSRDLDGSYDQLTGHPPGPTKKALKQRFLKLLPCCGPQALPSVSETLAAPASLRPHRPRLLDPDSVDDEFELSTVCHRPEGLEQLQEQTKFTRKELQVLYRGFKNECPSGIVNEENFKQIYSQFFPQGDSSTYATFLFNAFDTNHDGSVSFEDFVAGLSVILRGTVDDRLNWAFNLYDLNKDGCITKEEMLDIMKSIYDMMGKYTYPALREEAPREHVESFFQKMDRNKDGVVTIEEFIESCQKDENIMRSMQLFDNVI
Experiment: Whole-cell patch clamp in human atrial myocytes: Ito
Assay type: cell-based
Experimental: The blocking profile of the compounds of the invention is determined on the following channels of the human atrial myocytes: INa, Ito, Isus and IK1 channel currents.
Human atrial myocytes: Myocytes were prepared from specimens with grossly normal anatomical aspect, excised from hearts of patients with normal P-wave electrocardiogram, undergoing bypass surgery. Human atrial sample were obtained following approval by the ethical committee. […]
Experiments were performed at room temperature (20-25° C.) for INa and at 32-34° C. for Ito, Isus, IK1. Currents were measured using the whole-cell variant of the patch clamp method. […]
After rupture of the cell membrane to enter the whole-cell mode, current amplitude and kinetics were allowed to stabilize for 3-7 min before initiating the experimental procedure. K^+ currents recorded from human atrial myocytes were elicited by a 500 ms pulse to +60 mV from a holding potential of −50 mV for Ito and Isus. Ito was measured as a peak current amplitude whereas Isus as a current present at the end of the 500 ms voltage pulse. In addition, the area under the curve, before and after compound, were measured over the course of the pulse period. […]

Block at 10 μM in %: Ito (Kv4.3) (10 μM, n = 3 cells): 82.0 ± 3.6%
IC50 (dose-response analysis, read-out: IC50 on the ITO current): 800 nM
Compound: COc1ccccc1Nc1nc(C)c(C(=O)N[C@H]2CCC[C@@H]2OCc2ccccc2)s1 [Compound 68, 2-(2-methoxy-phenylamino)-4-methyl-thiazole-5-carboxylic acid (1S,2S)-2-(benzyloxycyclopent-1-yl) amide]
